According to patent publication US20170350876A1, “BIOSENSOR FOR SINGLE CELL ANALYSIS” (priority 2016, published 2017):

Assays:
MCF-7 single cells = test: Single cell impedance monitoring on the biosensor (EDR single cell analysis); assay type: cell-based, human; conditions: for mean impedance changes of the single cells over time, in words: 2.1 and 10.5 nM MBZ, 0.1 and 1 nM PTX, nano-roughened biosensor, about 4 kHz, FIG. 12A
Description: MCF-7 cell lines which were acquired to be used in this example. The cell lines have been separated from grad I human breast tumors. The cell lines were maintained at 37° C. in an incubator (about 5% CO2, about 95% clean air) and in RPMI-1640 medium supplemented with about 5% fetal bovine serum and about 1% penicillin/streptomycin. The fresh medium was replaced every other day. In order to detach cell from the substrate and become suspended in cell solution, cells was trypsynized. As performing cell culturing process at room temperature of about 20° C. -22° C., trypsinization should be done in less than about 6 minutes to minimize the influence of trypsinization. The cell solution was dropped onto an exemplary biosensor, which was fabricated according to EXAMPLE 1, and then the biosensor was maintained in an incubator for about 4 hours to reach cells attachment on the biosensor surface and trapping single cells within microwells of the biosensor.
Exemplary biosensors with cell solutions dropped onto them (as described herein in EXAMPLE 2) were maintained in an incubator for about 4 hours to reach cells attachment on biosensors surface. MBZ and PTX antitubulin drugs were added into the microwells containing single cells in low concentrations (about 2.1 nM for MBZ and about 0.1 nM for PTX) and high concentrations (about 10.5 nM for MBZ and about 1 nM for PTX) concentrations. The signals were recorded 2 hours, 5 hours, 8 hours, 20 hours, 32 hours, and 44 hours after drug addition that means 6 hours, 9 hours, 12 hours, 24 hours, […]. Electrical signals Measurements were collected in frequencies ranged from about 1 KHz to about 60 KHz by impedance measurement system (electrical signal extraction board) at about every 2 hours. A small “ac” sinusoidal signal was applied to the sensors. For different frequencies of the “ac” signal, the sensitivity of the sensor would vary which is called as the frequency characteristics. The bias voltage of the system was about 40 mV which wasn't destructive for cellular metabolism and a series resistance was used as current limiter element. For each cell trapped in each microwell of the biosensors, four electrodes may be used for signal extraction in two states (with up-down or right-left neighbor electrodes). The final result may be the average of the several signals extracted from the different sensors on a chip (several microwells on a biosensor) to consider cellular heterogeneity and different positioning of the cells relative to the electrodes and other parameters.
FIGS. 10A-10F show impedance diagrams for a MCF-7 single cell seeded and trapped in a microwell between electrodes about 4 hours after dropping the solution containing cells, which was assumed as an initial time (T=0) for all measurement experiments. After the attachment of the cell on the region between recording or sensing electrodes (after about 4 hours), observable increment in impedance was recorded with respect to media solution covered state (curve 1001 Vs. curve 1002 in FIG. 10A). T parameter was defined as a time merit started after dropping of the cells (t=4 hours was assumed equal to T=0). Delta Z (ΔZ) may include the difference between impedance at about 4 hours after cell seeding (equal to T=0) and the 4+x^th hours (x may be equal to 2, 5, 8, etc.), divided by the impedance at T=0. Average impedance of all frequencies were used for comparison. For better comprehension of impedimetric regime, the impedance changes of the CTRL cell were plotted in subsequently next time periods (about 6th, 9th, 12th and 24th hours) with respect to the impedance of the sensor in 4th hours after dropping the cells solution that are shown by curves 1003 (at T=2 or t=6 hours), 1004 (at T=5 or t=9 hours), 1005 (at T=8 or t=12 hours), and 1006 (at T=20 or t=24 hours) in FIG. 10B. […]

[1] = test system: MCF-7 cells, cytoskeletal structure (microtubules); test: Confocal imaging of drug treated single cells (anti-α-tubulin staining); conditions: 10.5 nM MBZ or 1 nM PTX, about 20 hours after drug treatment, compared with CTRL

| Structure (SMILES) | impedance reduction (MCF-7 single cells; 2.1 nM MBZ, T=2 hours, relative to T=0, FIG. 10C) | impedance reduction (MCF-7 single cells; 2.1 nM MBZ, T=6 hours (so in the source), relative to T=0, FIG. 10C) | impedance reduction (MCF-7 single cells; 2.1 nM MBZ, T=8 hours, relative to T=0, FIG. 10C) | impedance reduction (MCF-7 single cells; 2.1 nM MBZ, T=20 hours, relative to T=0, FIG. 10C) | impedance reduction (MCF-7 single cells; 10.5 nM MBZ, first time interval (T=2 hours), FIG. 10D) | impedance reduction (MCF-7 single cells; 10.5 nM MBZ, fourth time interval (T=20 hours), FIG. 10D) | impedance reduction (MCF-7 single cells; 10.5 nM MBZ, second time interval (T=6 hours as printed), FIG. 10D) | impedance reduction (MCF-7 single cells; 10.5 nM MBZ, third time interval (T=8 hours), FIG. 10D) | mean impedance changes of the single cells over time, in words (MCF-7 single cells) | effect on cytoskeletal structure and mitosis (confocal images), in words [1] | impedance increment (MCF-7 single cells; 0.1 nM PTX, T=about 2 hours, relative to T=0, FIG. 10E) | impedance increment (MCF-7 single cells; 0.1 nM PTX, T=about 5 hours, relative to T=0, FIG. 10E) | impedance increment (MCF-7 single cells; 0.1 nM PTX, T=about 8 hours, relative to T=0, FIG. 10E) | impedance increment (MCF-7 single cells; 0.1 nM PTX, T=about 20 hours, relative to T=0, FIG. 10E) | impedance increment (MCF-7 single cells; 1 nM PTX (high dose), T=2 hours, FIG. 10F) | impedance increment (MCF-7 single cells; 1 nM PTX (high dose), T=5 hours, FIG. 10F) | impedance increment (MCF-7 single cells; 1 nM PTX (high dose), T=8 hours, FIG. 10F) | impedance increment (MCF-7 single cells; 1 nM PTX (high dose), T=20 hours, FIG. 10F) |
| --- | --- | --- | --- | --- | --- | --- | --- | --- | --- | --- | --- | --- | --- | --- | --- | --- | --- | --- |
| COC(=O)Nc1nc2ccc(C(=O)c3ccccc3)cc2[nH]1 [MBZ, methyl5-benzoyl-2-benzimidazole-carbamate] | about 5% | ~10% | about 15% | ~30% | about 15% | ~45% | ~25% | ~35% | continues reduction in the impedance which exhibited a linier correlation with doses of the drug | No entrance to even primary cycles of mitosis, degraded distribution of cytoskeleton and monoastered microtubules |  |  |  |  |  |  |  |  |
| CC(=O)O[C@H]1C(=O)[C@@]2(C)[C@H]([C@H](OC(=O)c3ccccc3)[C@]3(O)C[C@H](OC(=O)[C@H](O)[C@@H](NC(=O)c4ccccc4)c4ccccc4)C(C)=C1C3(C)C)[C@]1(OC(C)=O)CO[C@@H]1C[C@@H]2O [PTX, Paclitaxel] |  |  |  |  |  |  |  |  | moderate impedance increment with dose dependent reductive regime | aggregated MTs as polymerizing effect of Taxol on cytoskeletal structure which induced mitotic arrest in the cell and deformed the nucleus during the mitosis | about 10% | ~30% | ~35% | ~45% | about 5% | ~15% | ~20% | ~25% |
